Measurements from PubChem BioAssay (NCI).
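Following 48 hours of exposure in 96-well plates, responses at five concentrations were used to interpolate endpoints linearly. TGI denotes the concentration required for complete inhibition of growth.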

Tests used:
Assay in all cases: DTP human tumour cell line panel, 48 h
ACHN renal = test system: ACHN renal
CCRF-CEM leukemia = test system: CCRF-CEM leukemia
SF-295 CNS = test system: SF-295 CNS
MALME-3M melanoma = test system: MALME-3M melanoma
RXF 393 renal = test system: RXF 393 renal
HCT-116 colon = test system: HCT-116 colon
KM12 colon = test system: KM12 colon
IGROV1 ovarian = test system: IGROV1 ovarian
UO-31 renal = test system: UO-31 renal
SW-620 colon = test system: SW-620 colon
LOX IMVI melanoma = test system: LOX IMVI melanoma
MOLT-4 leukemia = test system: MOLT-4 leukemia
OVCAR-8 ovarian = test system: OVCAR-8 ovarian
HL-60(TB) leukemia = test system: HL-60(TB) leukemia
HOP-62 NSCLC = test system: HOP-62 NSCLC
SF-268 CNS = test system: SF-268 CNS
UACC-257 melanoma = test system: UACC-257 melanoma
SNB-75 CNS = test system: SNB-75 CNS
SF-539 CNS = test system: SF-539 CNS
SK-MEL-28 melanoma = test system: SK-MEL-28 melanoma
NCI-H460 lung = test system: NCI-H460 lung
HT29 colon = test system: HT29 colon
SK-MEL-5 melanoma = test system: SK-MEL-5 melanoma
A498 renal = test system: A498 renal
PC-3 prostate = test system: PC-3 prostate
HS 578T breast = test system: HS 578T breast
A549 NSCLC = test system: A549 NSCLC
OVCAR-4 ovarian = test system: OVCAR-4 ovarian
MDA-N = test system: MDA-N
OVCAR-3 ovarian = test system: OVCAR-3 ovarian
NCI-H522 lung = test system: NCI-H522 lung
CAKI-1 renal = test system: CAKI-1 renal
HOP-92 NSCLC = test system: HOP-92 NSCLC
NCI/ADR-RES ovarian = test system: NCI/ADR-RES ovarian
SN12C renal = test system: SN12C renal
HCT-15 colon = test system: HCT-15 colon
RPMI-8226 leukemia = test system: RPMI-8226 leukemia
MDA-MB-435 = test system: MDA-MB-435
EKVX NSCLC = test system: EKVX NSCLC
TK-10 renal = test system: TK-10 renal
U251 CNS = test system: U251 CNS
SNB-19 CNS = test system: SNB-19 CNS
OVCAR-5 ovarian = test system: OVCAR-5 ovarian
K-562 leukemia = test system: K-562 leukemia
NCI-H23 lung = test system: NCI-H23 lung
COLO 205 colon = test system: COLO 205 colon
786-0 renal = test system: 786-0 renal
BT-549 breast = test system: BT-549 breast
MDA-MB-231 breast = test system: MDA-MB-231 breast
DU-145 prostate = test system: DU-145 prostate
HCC-2998 colon = test system: HCC-2998 colon
NCI-H226 lung = test system: NCI-H226 lung
MCF7 breast = test system: MCF7 breast
UACC-62 melanoma = test system: UACC-62 melanoma
M14 melanoma = test system: M14 melanoma
SR leukemia = test system: SR leukemia
SK-MEL-2 melanoma = test system: SK-MEL-2 melanoma

`Nc1nc(Cl)c(/C=N\O)c(NCC2(CO)CC(=O)C2)n1` gave a TGI (ACHN renal) of over 100 µM, a TGI (CCRF-CEM leukemia) of over 100 µM and a TGI (SF-295 CNS) of over 100 µM. It also gave a TGI (MALME-3M melanoma) of over 100 µM, a TGI (RXF 393 renal) of over 100 µM and a TGI (HCT-116 colon) of over 100 µM. The TGI (KM12 colon) was 82.1 µM, the TGI (IGROV1 ovarian) was 70.4 µM and the TGI (UO-31 renal) was over 100 µM. The TGI (SW-620 colon) was over 100 µM, the TGI (LOX IMVI melanoma) was over 100 µM and the TGI (MOLT-4 leukemia) was over 100 µM. For the same compound, the TGI (OVCAR-8 ovarian) was over 100 µM, the TGI (HL-60(TB) leukemia) was over 100 µM and the TGI (HOP-62 NSCLC) was over 100 µM. For the same compound, the TGI (SF-268 CNS) was over 100 µM, the TGI (UACC-257 melanoma) was over 100 µM and the TGI (SNB-75 CNS) was over 100 µM. For the same compound, the TGI (SF-539 CNS) was over 100 µM, the TGI (SK-MEL-28 melanoma) was over 100 µM and the TGI (NCI-H460 lung) was over 100 µM. For the same compound, the TGI (HT29 colon) was over 100 µM, the TGI (SK-MEL-5 melanoma) was over 100 µM and the TGI (A498 renal) was over 100 µM. For the same compound, the TGI (PC-3 prostate) was over 100 µM, the TGI (HS 578T breast) was 55.6 µM and the TGI (A549 NSCLC) was over 100 µM. The TGI (OVCAR-4 ovarian) was over 100 µM, the TGI (MDA-N) was over 100 µM and the TGI (OVCAR-3 ovarian) was over 100 µM. For the same compound, the TGI (NCI-H522 lung) was over 100 µM, the TGI (CAKI-1 renal) was over 100 µM and the TGI (HOP-92 NSCLC) was over 100 µM. For the same compound, the TGI (NCI/ADR-RES ovarian) was over 100 µM, the TGI (SN12C renal) was over 100 µM and the TGI (HCT-15 colon) was over 100 µM. It also gave a TGI (RPMI-8226 leukemia) of over 100 µM, a TGI (MDA-MB-435) of over 100 µM and a TGI (EKVX NSCLC) of over 100 µM. It also gave a TGI (TK-10 renal) of over 100 µM, a TGI (U251 CNS) of over 100 µM and a TGI (SNB-19 CNS) of over 100 µM. It also gave a TGI (OVCAR-5 ovarian) of over 100 µM, a TGI (K-562 leukemia) of over 100 µM and a TGI (NCI-H23 lung) of over 100 µM. For the same compound, the TGI (COLO 205 colon) was over 100 µM, the TGI (786-0 renal) was over 100 µM and the TGI (BT-549 breast) was over 100 µM. It also gave a TGI (MDA-MB-231 breast) of over 100 µM, a TGI (DU-145 prostate) of over 100 µM and a TGI (HCC-2998 colon) of over 100 µM. It also gave a TGI (NCI-H226 lung) of over 100 µM and a TGI (MCF7 breast) of over 100 µM.

Work on `O=C1C=CC2(C=C1)CCC(=O)O2` yielded a TGI (ACHN renal) of 34.2 µM, a TGI (CCRF-CEM leukemia) of 25.3 µM and a TGI (SF-295 CNS) of 46.4 µM. It also gave a TGI (MALME-3M melanoma) of 19.6 µM, a TGI (RXF 393 renal) of 28.3 µM and a TGI (HCT-116 colon) of 28 µM. For the same compound, the TGI (KM12 colon) was 29.9 µM, the TGI (IGROV1 ovarian) was 28.5 µM and the TGI (UO-31 renal) was 31.2 µM. The TGI (SW-620 colon) was 37.5 µM, the TGI (LOX IMVI melanoma) was 20.9 µM and the TGI (MOLT-4 leukemia) was over 100 µM. It also gave a TGI (OVCAR-8 ovarian) of over 100 µM, a TGI (HOP-62 NSCLC) of 38.2 µM and a TGI (SF-268 CNS) of 51.6 µM. For the same compound, the TGI (UACC-257 melanoma) was 80.2 µM, the TGI (SNB-75 CNS) was 39.1 µM and the TGI (UACC-62 melanoma) was 37.4 µM. For the same compound, the TGI (SF-539 CNS) was 76.8 µM, the TGI (SK-MEL-28 melanoma) was over 100 µM and the TGI (NCI-H460 lung) was 30.7 µM. The TGI (HT29 colon) was over 100 µM, the TGI (SK-MEL-5 melanoma) was 29.8 µM and the TGI (A498 renal) was over 100 µM. The TGI (PC-3 prostate) was 27.1 µM, the TGI (HS 578T breast) was over 100 µM and the TGI (A549 NSCLC) was 44.1 µM. The TGI (OVCAR-4 ovarian) was 29.9 µM, the TGI (MDA-N) was over 100 µM and the TGI (M14 melanoma) was over 100 µM. For the same compound, the TGI (OVCAR-3 ovarian) was 28.9 µM, the TGI (NCI-H522 lung) was 5.4 µM and the TGI (CAKI-1 renal) was 18.2 µM. The TGI (HOP-92 NSCLC) was 26.6 µM, the TGI (NCI/ADR-RES ovarian) was over 100 µM and the TGI (SN12C renal) was 34.5 µM. The TGI (HCT-15 colon) was 54.3 µM, the TGI (RPMI-8226 leukemia) was 23.7 µM and the TGI (MDA-MB-435) was 29.6 µM. The TGI (EKVX NSCLC) was 43.8 µM, the TGI (TK-10 renal) was 24.2 µM and the TGI (U251 CNS) was 23.1 µM. The TGI (SNB-19 CNS) was 37.4 µM, the TGI (OVCAR-5 ovarian) was 46 µM and the TGI (K-562 leukemia) was over 100 µM. It also gave a TGI (NCI-H23 lung) of 43.9 µM, a TGI (COLO 205 colon) of 23.1 µM and a TGI (786-0 renal) of 31 µM. For the same compound, the TGI (BT-549 breast) was 46.3 µM, the TGI (MDA-MB-231 breast) was 23.9 µM and the TGI (DU-145 prostate) was 31.5 µM. The TGI (HCC-2998 colon) was 27.2 µM, the TGI (SR leukemia) was over 100 µM and the TGI (SK-MEL-2 melanoma) was 36.6 µM. The TGI (NCI-H226 lung) was over 100 µM and the TGI (MCF7 breast) was 34.5 µM.
